Results from patent US12590099B2, “Inhibitors of histone deacetylase useful for the treatment or prevention of HIV infection” (Merck Sharp & Dohme LLC, priority 2018, dated 2026).
Read-outs that look alike come from different tables or passages of the source.

Experiments:
Recombinant human HDAC1 = target: T1, Recombinant human HDAC1 (Homo sapiens, UniProt Q13547); experiment: Human HDAC enzyme inhibitor Fluor-de-Lys assay, HDAC1; assay type: biochemical
T1 construct: FLAG (C); made in house
In short: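 Fluor-de-Lys format at room temperature (23° C.): compounds titrated 10-point, 1:3, preincubated with HDAC before substrate addition; HDAC1 run at 0.3 nM enzyme with 20 μM BML-KI104. Developer with excess HDAC inhibitor ends the reaction, and trypsin-liberated AMC fluorescence is the read-out.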

Recombinant human HDAC8 = target: T2, Recombinant human HDAC8 (Homo sapiens, UniProt Q9BY41); experiment: Human HDAC enzyme inhibitor Fluor-de-Lys assay, HDAC8; assay type: biochemical
T2 construct: purchased Enzo Life Sciences BML-SE145-0100
T2 sequence (Q9BY41 1-377): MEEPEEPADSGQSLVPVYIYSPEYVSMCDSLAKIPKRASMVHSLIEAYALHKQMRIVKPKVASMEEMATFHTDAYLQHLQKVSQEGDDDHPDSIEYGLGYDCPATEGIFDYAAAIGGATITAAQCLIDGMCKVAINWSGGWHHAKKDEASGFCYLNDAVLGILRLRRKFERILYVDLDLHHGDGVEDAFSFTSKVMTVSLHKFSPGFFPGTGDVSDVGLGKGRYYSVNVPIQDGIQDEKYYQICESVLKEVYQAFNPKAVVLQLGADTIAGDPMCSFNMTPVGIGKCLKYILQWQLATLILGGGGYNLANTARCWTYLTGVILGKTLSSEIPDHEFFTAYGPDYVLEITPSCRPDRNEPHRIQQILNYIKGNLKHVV

KARN cells (Jurkat 2C4) = experiment: cells; assay type: cell-based
In short: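 Jurkat 2C4 (KARN) cells dosed with test compounds up to 40 μM final, 0.4% DMSO, overnight at 5% CO2; luciferase read by Steady-Glo luminescence after 10 min at room temperature. DMSO set as 0% and 2 μM SAHA as 100% induction; 4-parameter fit of percent activation.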

[1] = target: T3, Recombinant human HDAC3/SMRT heterodimer (Homo sapiens, UniProt O15379); experiment: Human HDAC enzyme inhibitor Fluor-de-Lys assay, HDAC3/SMRT; assay type: biochemical
T3 construct: FLAG (C); made in house

[2] = recombinant human HDAC1, Fluor-de-Lys assay
[3] = recombinant human HDAC8, Fluor-de-Lys assay
[4] = Homo sapiens, Jurkat, read-out: Karn EC50 (nM) 0.1% NHS, 0.1% normal human serum, luciferase induction, 100% = 2 μM SAHA
[5] = Homo sapiens, Jurkat, read-out: Karn EC50 (nM) 5% NHS, 5% normal human serum, luciferase induction, 100% = 2 μM SAHA
[6] = recombinant human HDAC3/SMRT, Fluor-de-Lys assay
[7] = Homo sapiens, Jurkat, read-out: Karn EC50 (nM) 0.1% NHS, 0.1% normal human serum
[8] = Homo sapiens, Jurkat, read-out: Karn EC50 (nM) 5% NHS, 5% normal human serum

T3 sequence (O15379 whole entry): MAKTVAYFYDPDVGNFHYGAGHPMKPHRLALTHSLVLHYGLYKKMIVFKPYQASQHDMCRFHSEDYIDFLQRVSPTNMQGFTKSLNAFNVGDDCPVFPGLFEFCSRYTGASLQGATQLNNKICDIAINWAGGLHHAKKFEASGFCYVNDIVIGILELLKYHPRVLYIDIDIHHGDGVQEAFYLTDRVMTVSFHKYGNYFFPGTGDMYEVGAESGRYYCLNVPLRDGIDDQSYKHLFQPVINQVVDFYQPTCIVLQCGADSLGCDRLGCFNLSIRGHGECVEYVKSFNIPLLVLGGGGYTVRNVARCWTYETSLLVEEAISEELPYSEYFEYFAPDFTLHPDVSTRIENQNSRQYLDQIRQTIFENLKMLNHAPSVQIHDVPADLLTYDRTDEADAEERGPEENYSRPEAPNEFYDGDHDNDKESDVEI
T3 sequence (Q9Y618 1-899 partner limits assumed): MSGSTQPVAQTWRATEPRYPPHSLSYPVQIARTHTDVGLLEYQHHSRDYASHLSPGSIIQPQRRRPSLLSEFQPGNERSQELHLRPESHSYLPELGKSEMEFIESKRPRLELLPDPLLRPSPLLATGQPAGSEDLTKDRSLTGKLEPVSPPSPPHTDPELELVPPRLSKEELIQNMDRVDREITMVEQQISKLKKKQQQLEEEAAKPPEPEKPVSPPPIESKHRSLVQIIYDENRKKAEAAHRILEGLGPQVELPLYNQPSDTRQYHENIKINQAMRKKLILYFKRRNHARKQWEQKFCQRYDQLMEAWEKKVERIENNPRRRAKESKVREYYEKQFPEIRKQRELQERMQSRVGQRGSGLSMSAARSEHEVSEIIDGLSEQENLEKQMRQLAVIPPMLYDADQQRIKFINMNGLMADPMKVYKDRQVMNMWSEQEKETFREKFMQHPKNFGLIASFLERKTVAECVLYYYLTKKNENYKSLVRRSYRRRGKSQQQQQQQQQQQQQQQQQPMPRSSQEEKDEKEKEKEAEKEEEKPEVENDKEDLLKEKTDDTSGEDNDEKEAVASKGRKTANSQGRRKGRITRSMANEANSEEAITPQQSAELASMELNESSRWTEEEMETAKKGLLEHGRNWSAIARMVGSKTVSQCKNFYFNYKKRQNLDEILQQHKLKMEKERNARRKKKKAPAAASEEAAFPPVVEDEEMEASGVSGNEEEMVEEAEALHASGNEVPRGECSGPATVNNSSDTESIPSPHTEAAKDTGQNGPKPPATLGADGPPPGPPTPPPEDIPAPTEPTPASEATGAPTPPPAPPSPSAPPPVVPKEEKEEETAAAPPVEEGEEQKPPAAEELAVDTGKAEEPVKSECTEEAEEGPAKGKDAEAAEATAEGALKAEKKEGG
T1 sequence (Q13547 whole entry): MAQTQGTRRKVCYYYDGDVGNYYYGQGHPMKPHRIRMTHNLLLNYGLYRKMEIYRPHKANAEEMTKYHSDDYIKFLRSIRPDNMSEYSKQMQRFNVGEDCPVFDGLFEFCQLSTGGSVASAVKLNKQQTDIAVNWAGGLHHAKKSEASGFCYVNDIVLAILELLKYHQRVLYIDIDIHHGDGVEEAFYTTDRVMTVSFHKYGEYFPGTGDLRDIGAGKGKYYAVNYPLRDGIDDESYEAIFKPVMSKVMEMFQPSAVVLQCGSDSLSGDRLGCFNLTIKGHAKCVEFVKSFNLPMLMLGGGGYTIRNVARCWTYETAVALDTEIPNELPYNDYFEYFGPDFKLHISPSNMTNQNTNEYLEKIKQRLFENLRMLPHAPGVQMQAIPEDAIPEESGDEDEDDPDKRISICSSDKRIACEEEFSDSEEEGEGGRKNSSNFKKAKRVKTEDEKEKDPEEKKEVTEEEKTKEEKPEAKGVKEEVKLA

SMILES	IC50 (Recombinant human HDAC1; [2])	IC50 (Recombinant human HDAC8; [3])	EC50 (KARN cells (Jurkat 2C4); [4])	EC50 (KARN cells (Jurkat 2C4); [5])	IC50 [1, 6]	EC50 (KARN cells (Jurkat 2C4); read-out: Karn EC50 (nM) 0.1% NHS, 0.1% normal human serum, luciferase induction, 100% = 2 μM SAHA)	EC50 (KARN cells (Jurkat 2C4); read-out: Karn EC50 (nM) 5% NHS, 5% normal human serum, luciferase induction, 100% = 2 μM SAHA)	IC50 (Recombinant human HDAC1)	IC50 (Recombinant human HDAC8)	EC50 (KARN cells (Jurkat 2C4); [7])	EC50 (KARN cells (Jurkat 2C4); [8])	IC50 [1]
CCC(=O)CCCCC[C@H](NC(=O)[C@H]1CC12CCN(C)CC2)c1ncc(-c2ccc3ccc(C)nc3c2F)[nH]1 [Compound 354]	1.82 nM	0.798 µM	264 nM	295 nM	2.18 nM							
CCCn1cc(-c2[nH]c(-c3ccc(F)cc3)nc2C(CCCCCC(=O)CC)NC(=O)C2CC23CCN(CC)CC3)cn1 (centres unmarked) [Compound 254]	29.4 nM	38.7 µM	5340 nM	6040 nM	29.6 nM							
CCC(=O)CCCCC[C@H](NC(=O)C1CC12CCN(CC)CC2)c1nc(-c2ccc(F)cc2)[nH]c1-c1cccs1 (some centres unmarked) [Compound 252]	56.6 nM	29.6 µM	1600 nM	2880 nM	66.1 nM							
CCC(=O)CCCCC[C@H](NC(=O)C1CC12CCN(CC)CC2)c1nc(-c2ccc(F)cc2)[nH]c1-c1ccn(C)c1 (some centres unmarked) [Compound 251]	2.73 nM	29.4 µM	143 nM	216 nM	1.82 nM							
CCC(=O)CCCCC[C@H](NC(=O)[C@H]1CC12CCN(C)CC2)c1ncc(-c2cnc(OC)nc2)[nH]1 [Compound 255]	168 nM	5.79 µM	13300 nM	14800 nM	81.9 nM							
CCC(=O)CCCCC[C@H](NC(=O)C1=NOC2(CCN(CC)CC2)C1)c1ncc(-c2cc3ccc(C)nc3cc2F)o1 [Compound 269]	5.18 nM	> 0.9 µM			8.3 nM	746 nM	1210 nM					
CCC(=O)CCCCC[C@@H](NC(=O)C1CCC2(CC1)CNC2)c1ncc(-c2ccccc2)[nH]1 [Compound 298]	36.5 nM	1.69 µM	7010 nM	11800 nM	10.4 nM							
CCC(=O)CCCCCC(NC(=O)C1CCC2(CC1)OC(=O)c1cnccc12)c1nnc(-c2cc3ccccc3nc2OC)o1 (centres unmarked) [Compound 364]	63 nM	32.1 µM	1770 nM	4310 nM	21.8 nM							
CCC(=O)CCCCC[C@H](NC(=O)[C@H]1CC12CCN(C)CC2)c1[nH]c(-c2ccc(F)cc2)nc1Cl [Compound 240]	5.73 nM	26.7 µM	247 nM	346 nM	2.95 nM							
CCC(=O)CCCCC[C@H](NC(=O)[C@H]1CC12CCN(C)CC2)c1ncc(-c2ccccc2F)[nH]1 [Compound 290]	15.4 nM	5.23 µM	415 nM	519 nM	4.08 nM							
CCCC(=O)CCCCC[C@H](NC(=O)[C@H]1CC12CCN(C)CC2)c1ncc(-c2ccc(F)cc2)[nH]1 [Compound 239]	13.9 nM	20.6 µM	324 nM	581 nM	15.3 nM							
CCC(=O)CCCCC[C@H](NC(=O)CC1CC2(CNC2)C1)c1nnc(-c2cc3ccccc3nc2OC)o1 [Compound 301]	24.6 nM	29.5 µM	24200 nM		15.8 nM							
CCC(=O)CCCCC[C@H](NC(=O)[C@H]1CC12CCN(CC)CC2)c1ncc(-c2ccc(-n3cccn3)cc2)o1 [Compound 95]								5.26 nM	20.5 µM	522 nM	747 nM	3.95 nM
CCC(=O)CCCCC[C@H](NC(=O)[C@H]1CC12CCN(C)CC2)c1ncc(-c2ccc3nc(C)ccc3c2)o1 [Compound 80]								2.89 nM	> 45 µM	435 nM	501 nM	2.96 nM
CCC(=O)CCCCC[C@H](NC(=O)C1NC(=O)CC12CN(C)C2)c1ncc(-c2cc3ccccc3nc2OC)[nH]1 (some centres unmarked) [Compound 317]	0.87 nM	4.89 µM	591 nM	1720 nM	0.84 nM							
CCC(=O)CCCCC[C@H](NC(=O)CC1CC2(C1)CN(C)C2)c1ncc(-c2cc3ccccc3nc2O)[nH]1 [Compound 326]	3.27 nM	> 4.5 µM	2400 nM	3820 nM	1.58 nM							
CCC(=O)CCCCC[C@H](NC(=O)[C@H]1CC12CCN(CC1CC1)CC2)c1ncc(-c2cc3ccc(C)nc3cc2F)[nH]1 [Compound 228]	0.12 nM	> 0.9 µM	22 nM	22 nM	0.19 nM							
CCC(=O)CCCCCC(NC(=O)C1CC12CCN(CC)CC2)c1nc(-c2ccc(F)cc2)[nH]c1-c1ccnn1C (centres unmarked) [Compound 253]	30.4 nM	26.8 µM	1870 nM	2340 nM	16.7 nM							
CCC(=O)CCCCC[C@H](NC(=O)[C@H]1CC12CCN(C)CC2)c1[nH]c(-c2ccc(F)cc2)nc1Cl [Compound 91]								4.38 nM	31.9 µM	207 nM	274 nM	3.26 nM
CCC(=O)CCCCC[C@H](NC(=O)C1=NOC2(CCN(CC3CC3)CC2)C1)c1ncc(-c2cc3ccc(C)nc3cc2OC)o1 [Compound 225]	0.6 nM	> 0.9 µM	217 nM	247 nM	1.14 nM							
CCC(=O)CCCCC[C@H](NC(=O)[C@H]1CC12CCN(C(C)C)CC2)c1ncc(-c2ccc3nc(C4CC4)ccc3c2)[nH]1 [Compound 100]								< 1.5 nM	8.25 µM	68 nM	64 nM	< 1.5 nM
CCC(=O)CCCCC[C@H](NC(=O)C1CC12CCNCC2)c1nnc(-c2cc3ccccc3nc2OC)o1 (some centres unmarked) [Compound 303]	17.2 nM	29.2 µM	2430 nM	4260 nM	10.5 nM							
CCC(=O)CCCCC[C@H](NC(=O)C1CCC2(CC1)CN(C(C)C)C2)c1ncc(-c2cc3ccccc3nc2OC)[nH]1 [Compound 272]	2.08 nM	1.25 µM	163 nM	721 nM	< 1.5 nM							
CCC(=O)CCCCC[C@H](NC(=O)C1CCC2(CC1)CNC2)c1nnc(-c2cc3ccccc3nc2OC)o1 [Compound 299]	12.2 nM	27.8 µM	7000 nM	9270 nM	6.56 nM							
CCC(=O)CCCCC[C@H](NC(=O)[C@H]1CC12CCN(C)CC2)c1ncc(-c2coc3ccccc3c2=O)[nH]1 [Compound 86]								15.9 nM	3.17 µM	1060 nM	1510 nM	12.1 nM
CCC(=O)CCCCC[C@H](NC(=O)C1=NOC2(CCN(CC)CC2)C1)c1ncc(-c2cc3ccc(C)nc3cc2F)[nH]1 [Compound 233]	3.59 nM	> 0.9 µM	166 nM	230 nM	8.8 nM							
CCC(=O)CCCCC[C@H](NC(=O)C1=NOC2(CCN(C)CC2)C1)c1ncc(-c2ccc(-c3cccnc3)cc2OC)o1 [Compound 222, N-{(1S)-1-[5-(2-methoxy-4-pyridin-3-ylphenyl)-1,3-oxazol-2-yl]-7-oxononyl}-8-methyl-1-oxa-2,8-diazaspiro[4.5]dec-2-ene-3-carboxamide]	1.61 nM	> 0.9 µM	298 nM	364 nM	4.67 nM							
CCC(=O)CCCCC[C@H](NC(=O)[C@H]1CC12CCN(CC)CC2)c1ncc(-c2ccc(-c3ncco3)cc2)o1 [Compound 94]								9.13 nM	44.2 µM	502 nM	549 nM	4.01 nM
CCC(=O)CCCCC[C@H](NC(=O)[C@H]1CC12CCN(C)CC2)c1ncc(-c2ccc3nc(C(F)(F)F)ccc3c2)o1 [Compound 78, (1S)-6-methyl-N-[(1S)-7-oxo-1-{5-[2-(trifluoromethyl)quinolin-6-yl]-1,3-oxazol-2-yl}nonyl]-6-azaspiro[2.5]octane-1-carboxamide]								18.3 nM	> 45 µM	911 nM	1440 nM	13.8 nM
CCC(=O)CCCCC[C@H](NC(=O)C1=NOC2(CCN(C)CC2)C1)c1ncc(-c2ccc(-c3cnccn3)cc2OC)o1 [Compound 237, N-{(1S)-1-[5-(2-methoxy-4-pyrazin-2-ylphenyl)-1,3-oxazol-2-yl]-7-oxononyl}-8-methyl-1-oxa-2,8-diazaspiro[4.5]dec-2-ene-3-carboxamide]	2.41 nM	> 0.9 µM	235 nM	274 nM	6.06 nM							
